# Results taken from ChEMBL document CHEMBL4390652, “Design, biological evaluation and X-ray crystallography of nanomolar multifunctional ligands targeting simultaneously acetylcholinesterase and glycogen synthase kinase-3” (Eur J Med Chem, 2019).
# Columns and labels:
# [1] = test system: HaCaT; assay: Cytotoxicity against human HaCaT cells assessed as growth inhibition incubated for 48 hrs by Hoechst 33342 staining based assay; format: cell-based
# [2] = test system: Tyrosine-protein kinase ABL1 (Homo sapiens), P00519 [E255K]; assay: Binding affinity to human phosphorylated ABL1 E255K mutant (S229 to K512 residues) expressed in mammalian expression system assessed as residual binding level at 10 uM by Kinomescan method relative to control
# [3] = biological target: NUAK family SNF1-like kinase 1 (Homo sapiens) (UniProt O60285); assay: Binding affinity to wild-type human partial length ARK5 (E25 to I332 residues) expressed in bacterial expression system assessed as residual binding level at 10 uM by Kinomescan method relative to control
# [4] = biological target: BMP-2-inducible protein kinase (Homo sapiens) (UniProt Q9NSY1); assay: Binding affinity to wild-type human partial length BIKE (S34 to N329 residues) expressed in bacterial expression system assessed as residual binding level at 10 uM by Kinomescan method relative to control
# [5] = biological target: Calcium/calmodulin-dependent protein kinase type II subunit delta (Homo sapiens) (UniProt Q13557); assay: Binding affinity to wild-type human partial length CAMK2D (M1 to E329 residues) expressed in bacterial expression system assessed as residual binding level at 10 uM by Kinomescan method relative to control
# [6] = biological target: Calcium/calmodulin-dependent protein kinase type IV (Homo sapiens) (UniProt Q16566); assay: Binding affinity to wild-type human partial length CAMK4 (A22 to A322 residues) expressed in bacterial expression system assessed as residual binding level at 10 uM by Kinomescan method relative to control
# [7] = biological target: Calcium/calmodulin-dependent protein kinase kinase 1 (Homo sapiens) (UniProt Q8N5S9); assay: Binding affinity to wild-type human partial length CAMKK1 (R65 to E414 residues) expressed in bacterial expression system assessed as residual binding level at 10 uM by Kinomescan method relative to control
# [8] = biological target: Cyclin-dependent kinase 8 (Homo sapiens) (UniProt P49336); assay: Binding affinity to wild-type human partial length CDK8 (M1 to T360 residues) expressed in bacterial expression system assessed as residual binding level at 10 uM by Kinomescan method relative to control
# [9] = biological target: Dual specificity protein kinase CLK4 (Homo sapiens) (UniProt Q9HAZ1); assay: Binding affinity to wild-type human partial length CLK4 (R135 to K481 residues) expressed in bacterial expression system assessed as residual binding level at 10 uM by Kinomescan method relative to control
# [10] = biological target: Casein kinase I isoform epsilon (Homo sapiens) (UniProt P49674); assay: Binding affinity to wild-type human full length CSNK1E (M1 to K416 residues) expressed in bacterial expression system assessed as residual binding level at 10 uM by Kinomescan method relative to control
# [11] = biological target: Ephrin type-A receptor 7 (Homo sapiens) (UniProt Q15375); assay: Binding affinity to wild-type human partial length EPHA7 (Y608 to S912 residues) expressed in bacterial expression system assessed as residual binding level at 10 uM by Kinomescan method relative to control
# [12] = biological target: Ephrin type-B receptor 3 (Homo sapiens) (UniProt P54753); assay: Binding affinity to wild-type human partial length EPHB3 (Q599 to T928 residues) expressed in bacterial expression system assessed as residual binding level at 10 uM by Kinomescan method relative to control
# [13] = biological target: Fibroblast growth factor receptor 4 (Homo sapiens) (UniProt P22455); assay: Binding affinity to wild-type human partial length FGFR4 (G402 to E713 residues) expressed in bacterial expression system assessed as residual binding level at 10 uM by Kinomescan method relative to control
# [14] = biological target: Vascular endothelial growth factor receptor 1 (Homo sapiens) (UniProt P17948); assay: Binding affinity to wild-type human partial length FLT1 (R781 to F1239 residues) expressed in bacterial expression system assessed as residual binding level at 10 uM by Kinomescan method relative to control
# [15] = test system: Receptor-type tyrosine-protein kinase FLT3 (Homo sapiens), P36888 [D835H]; assay: Binding affinity to human partial length FLT3 D835H mutant (V592 to Y969 residues) expressed in bacterial expression system assessed as residual binding level at 10 uM by Kinomescan method relative to control
# [16] = biological target: Tyrosine-protein kinase Fyn (Homo sapiens) (UniProt P06241); assay: Binding affinity to wild-type human partial length FYN (T243 to L534 residues) expressed in bacterial expression system assessed as residual binding level at 10 uM by Kinomescan method relative to control
# [17] = biological target: Mast/stem cell growth factor receptor Kit (Homo sapiens) (UniProt P10721); assay: Binding affinity to wild-type human partial length autoinhibited KIT (Y545 to D952 residues) expressed in mammalian expression system assessed as residual binding level at 10 uM by Kinomescan method relative to control
# [18] = biological target: Serine/threonine-protein kinase STK11 (Homo sapiens) (UniProt Q15831); assay: Binding affinity to wild-type human full length LKB1 (M1 to Q433 residues) expressed in bacterial expression system assessed as residual binding level at 10 uM by Kinomescan method relative to control
# [19] = biological target: Mitogen-activated protein kinase kinase kinase 15 (Homo sapiens) (UniProt Q6ZN16); assay: Binding affinity to wild-type human partial length MAP3K15 (T625 to L932 residues) expressed in mammalian expression system assessed as residual binding level at 10 uM by Kinomescan method relative to control
# [20] = test system: Hepatocyte growth factor receptor (Homo sapiens), P08581 [M1250T]; assay: Binding affinity to human partial length MET M1250T mutant (D1010 to S1367 residues) expressed in bacterial expression system assessed as residual binding level at 10 uM by Kinomescan method relative to control
# [21] = biological target: cAMP-dependent protein kinase catalytic subunit alpha (Homo sapiens) (UniProt P17612); assay: Binding affinity to wild-type human partial length PKAC-alpha (G10 to F351 residues) expressed in bacterial expression system assessed as residual binding level at 10 uM by Kinomescan method relative to control
# [22] = biological target: Serine/threonine-protein kinase D1 (Homo sapiens) (UniProt Q15139); assay: Binding affinity to wild-type human partial length PRKD1 (G551 to E870 residues) expressed in bacterial expression system assessed as residual binding level at 10 uM by Kinomescan method relative to control
# [23] = biological target: Rho-associated protein kinase 2 (Homo sapiens) (UniProt O75116); assay: Binding affinity to wild-type human partial length ROCK2 (M1 to T431 residues) expressed in mammalian expression system assessed as residual binding level at 10 uM by Kinomescan method relative to control
# [24] = biological target: Testis-specific serine/threonine-protein kinase 1 (Homo sapiens) (UniProt Q9BXA7); assay: Binding affinity to wild-type human full length TSSK1B (M1 to Q367 residues) expressed in bacterial expression system assessed as residual binding level at 10 uM by Kinomescan method relative to control
# [25] = biological target: Testis-specific serine/threonine-protein kinase 3 (Homo sapiens) (UniProt Q96PN8); assay: Binding affinity to wild-type human full length TSSK3 (M1 to T268 residues) expressed in mammalian expression system assessed as residual binding level at 10 uM by Kinomescan method relative to control
# Chain of Serine/threonine-protein kinase STK11 (Homo sapiens) (Q15831 whole entry, the tested form may be a part): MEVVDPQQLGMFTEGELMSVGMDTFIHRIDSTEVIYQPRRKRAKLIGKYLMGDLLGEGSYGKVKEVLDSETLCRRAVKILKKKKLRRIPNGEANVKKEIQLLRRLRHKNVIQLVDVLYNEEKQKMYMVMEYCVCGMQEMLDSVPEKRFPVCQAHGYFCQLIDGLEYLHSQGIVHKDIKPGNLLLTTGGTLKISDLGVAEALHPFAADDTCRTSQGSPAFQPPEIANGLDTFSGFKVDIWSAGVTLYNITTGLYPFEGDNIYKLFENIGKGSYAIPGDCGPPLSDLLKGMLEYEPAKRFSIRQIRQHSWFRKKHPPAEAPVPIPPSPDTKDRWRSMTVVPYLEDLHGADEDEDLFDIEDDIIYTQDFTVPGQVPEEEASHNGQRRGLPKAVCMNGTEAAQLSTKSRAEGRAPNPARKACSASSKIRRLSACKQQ
# Chain of Fibroblast growth factor receptor 4 (Homo sapiens) (P22455 22-802 limits assumed): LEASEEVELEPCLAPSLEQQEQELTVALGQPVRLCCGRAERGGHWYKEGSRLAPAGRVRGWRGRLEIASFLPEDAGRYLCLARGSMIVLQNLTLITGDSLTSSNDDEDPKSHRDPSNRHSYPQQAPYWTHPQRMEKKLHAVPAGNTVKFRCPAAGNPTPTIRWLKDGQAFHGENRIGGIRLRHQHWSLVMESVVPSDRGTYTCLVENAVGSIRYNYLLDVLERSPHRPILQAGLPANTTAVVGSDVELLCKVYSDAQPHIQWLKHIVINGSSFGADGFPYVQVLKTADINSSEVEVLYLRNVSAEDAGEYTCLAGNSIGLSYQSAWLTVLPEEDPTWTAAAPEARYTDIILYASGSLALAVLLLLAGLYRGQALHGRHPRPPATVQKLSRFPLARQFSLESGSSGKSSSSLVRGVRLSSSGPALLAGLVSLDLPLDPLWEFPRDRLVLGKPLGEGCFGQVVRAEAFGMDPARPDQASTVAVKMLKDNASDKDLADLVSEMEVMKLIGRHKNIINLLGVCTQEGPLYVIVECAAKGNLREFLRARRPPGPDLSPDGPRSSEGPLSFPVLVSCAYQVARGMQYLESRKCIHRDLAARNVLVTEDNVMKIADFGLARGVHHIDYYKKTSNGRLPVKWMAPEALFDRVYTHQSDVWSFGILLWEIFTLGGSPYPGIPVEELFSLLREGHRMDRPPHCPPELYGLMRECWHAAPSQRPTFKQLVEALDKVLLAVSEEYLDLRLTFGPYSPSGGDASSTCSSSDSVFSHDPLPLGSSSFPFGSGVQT
# Chain of Ephrin type-A receptor 7 (Homo sapiens) (Q15375 28-998 limits assumed): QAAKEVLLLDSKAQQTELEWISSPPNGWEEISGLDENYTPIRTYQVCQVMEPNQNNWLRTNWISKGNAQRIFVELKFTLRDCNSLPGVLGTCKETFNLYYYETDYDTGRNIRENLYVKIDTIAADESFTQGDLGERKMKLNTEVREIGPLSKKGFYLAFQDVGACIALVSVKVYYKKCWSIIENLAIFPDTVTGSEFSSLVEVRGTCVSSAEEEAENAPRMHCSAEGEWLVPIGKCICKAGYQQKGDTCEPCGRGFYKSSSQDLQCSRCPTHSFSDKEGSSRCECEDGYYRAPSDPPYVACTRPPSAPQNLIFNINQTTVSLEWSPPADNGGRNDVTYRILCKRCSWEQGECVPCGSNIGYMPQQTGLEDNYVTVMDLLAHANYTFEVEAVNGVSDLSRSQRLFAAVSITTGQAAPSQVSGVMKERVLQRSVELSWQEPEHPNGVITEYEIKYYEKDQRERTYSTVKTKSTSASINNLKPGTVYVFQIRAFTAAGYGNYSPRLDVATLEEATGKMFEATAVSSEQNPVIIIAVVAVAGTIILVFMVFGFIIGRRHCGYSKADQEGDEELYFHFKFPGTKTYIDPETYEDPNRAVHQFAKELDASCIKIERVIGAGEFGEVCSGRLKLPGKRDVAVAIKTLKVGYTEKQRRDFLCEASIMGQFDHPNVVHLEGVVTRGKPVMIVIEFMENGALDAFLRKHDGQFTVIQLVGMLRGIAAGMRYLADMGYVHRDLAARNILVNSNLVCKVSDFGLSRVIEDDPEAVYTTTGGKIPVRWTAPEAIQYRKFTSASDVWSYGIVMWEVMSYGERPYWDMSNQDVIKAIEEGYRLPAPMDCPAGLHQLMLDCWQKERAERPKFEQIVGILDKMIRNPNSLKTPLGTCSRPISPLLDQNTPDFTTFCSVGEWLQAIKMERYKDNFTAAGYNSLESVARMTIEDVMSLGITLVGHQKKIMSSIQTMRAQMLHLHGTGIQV
# Chain of Mast/stem cell growth factor receptor Kit (Homo sapiens) (P10721 whole entry, the tested form may be a part): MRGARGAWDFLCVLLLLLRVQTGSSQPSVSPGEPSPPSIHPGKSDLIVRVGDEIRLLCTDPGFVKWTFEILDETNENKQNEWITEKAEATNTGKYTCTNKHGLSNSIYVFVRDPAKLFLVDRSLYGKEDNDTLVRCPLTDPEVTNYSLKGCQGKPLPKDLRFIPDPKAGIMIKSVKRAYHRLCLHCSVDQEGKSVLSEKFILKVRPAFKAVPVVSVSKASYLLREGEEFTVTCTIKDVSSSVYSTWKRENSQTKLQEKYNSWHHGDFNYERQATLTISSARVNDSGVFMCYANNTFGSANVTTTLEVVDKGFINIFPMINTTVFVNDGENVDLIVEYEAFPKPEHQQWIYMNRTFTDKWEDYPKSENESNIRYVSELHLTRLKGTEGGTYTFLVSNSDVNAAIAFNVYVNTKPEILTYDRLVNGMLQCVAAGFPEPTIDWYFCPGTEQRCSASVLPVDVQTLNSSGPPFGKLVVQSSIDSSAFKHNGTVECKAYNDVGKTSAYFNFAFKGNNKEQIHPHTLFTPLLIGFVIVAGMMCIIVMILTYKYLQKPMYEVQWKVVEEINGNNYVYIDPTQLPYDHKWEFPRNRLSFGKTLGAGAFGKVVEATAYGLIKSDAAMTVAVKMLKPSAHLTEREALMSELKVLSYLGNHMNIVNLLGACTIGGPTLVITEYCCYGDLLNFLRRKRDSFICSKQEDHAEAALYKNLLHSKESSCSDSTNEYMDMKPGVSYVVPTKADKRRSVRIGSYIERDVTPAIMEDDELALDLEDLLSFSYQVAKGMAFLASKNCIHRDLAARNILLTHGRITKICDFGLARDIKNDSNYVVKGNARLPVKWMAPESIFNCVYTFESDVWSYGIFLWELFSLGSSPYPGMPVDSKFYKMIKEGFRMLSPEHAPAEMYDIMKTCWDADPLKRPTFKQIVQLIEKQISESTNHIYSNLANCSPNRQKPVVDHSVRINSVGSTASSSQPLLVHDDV
# Chain of Rho-associated protein kinase 2 (Homo sapiens) (O75116 whole entry, looked up, the tested form may be a part): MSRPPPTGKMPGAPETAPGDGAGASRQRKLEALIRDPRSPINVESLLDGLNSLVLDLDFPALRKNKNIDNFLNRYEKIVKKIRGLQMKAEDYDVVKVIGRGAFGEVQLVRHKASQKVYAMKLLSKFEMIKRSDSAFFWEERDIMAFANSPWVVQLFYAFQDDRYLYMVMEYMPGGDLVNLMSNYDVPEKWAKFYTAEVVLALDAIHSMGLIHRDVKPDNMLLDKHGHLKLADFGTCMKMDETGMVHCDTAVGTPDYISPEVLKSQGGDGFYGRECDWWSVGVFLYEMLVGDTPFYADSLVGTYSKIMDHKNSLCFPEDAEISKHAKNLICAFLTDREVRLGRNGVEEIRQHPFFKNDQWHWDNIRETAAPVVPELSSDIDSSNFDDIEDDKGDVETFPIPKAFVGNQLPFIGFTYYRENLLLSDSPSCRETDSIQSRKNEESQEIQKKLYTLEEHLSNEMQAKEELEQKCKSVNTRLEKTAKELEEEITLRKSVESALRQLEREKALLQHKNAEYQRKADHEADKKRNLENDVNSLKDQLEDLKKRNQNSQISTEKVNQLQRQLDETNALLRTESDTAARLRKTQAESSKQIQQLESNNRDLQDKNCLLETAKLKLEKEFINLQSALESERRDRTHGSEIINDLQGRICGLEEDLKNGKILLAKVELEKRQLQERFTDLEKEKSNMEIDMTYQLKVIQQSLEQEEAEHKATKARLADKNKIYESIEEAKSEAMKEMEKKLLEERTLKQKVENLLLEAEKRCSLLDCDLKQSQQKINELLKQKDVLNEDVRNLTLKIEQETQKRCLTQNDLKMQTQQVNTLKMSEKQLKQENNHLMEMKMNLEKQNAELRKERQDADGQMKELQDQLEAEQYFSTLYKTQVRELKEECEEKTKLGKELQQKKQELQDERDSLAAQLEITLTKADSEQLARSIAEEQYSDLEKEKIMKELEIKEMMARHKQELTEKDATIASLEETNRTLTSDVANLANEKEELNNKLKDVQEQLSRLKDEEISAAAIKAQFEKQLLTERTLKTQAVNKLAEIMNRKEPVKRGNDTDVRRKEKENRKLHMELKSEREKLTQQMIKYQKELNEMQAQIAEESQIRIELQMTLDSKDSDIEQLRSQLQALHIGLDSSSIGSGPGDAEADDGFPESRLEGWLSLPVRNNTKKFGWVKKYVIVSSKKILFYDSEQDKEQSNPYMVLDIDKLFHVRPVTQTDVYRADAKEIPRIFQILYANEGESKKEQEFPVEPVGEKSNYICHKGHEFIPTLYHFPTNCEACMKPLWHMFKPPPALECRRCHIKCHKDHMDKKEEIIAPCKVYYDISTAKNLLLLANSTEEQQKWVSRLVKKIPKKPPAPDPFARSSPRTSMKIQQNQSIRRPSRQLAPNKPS
# Chain of Calcium/calmodulin-dependent protein kinase type II subunit delta (Homo sapiens) (Q13557 whole entry, the tested form may be a part): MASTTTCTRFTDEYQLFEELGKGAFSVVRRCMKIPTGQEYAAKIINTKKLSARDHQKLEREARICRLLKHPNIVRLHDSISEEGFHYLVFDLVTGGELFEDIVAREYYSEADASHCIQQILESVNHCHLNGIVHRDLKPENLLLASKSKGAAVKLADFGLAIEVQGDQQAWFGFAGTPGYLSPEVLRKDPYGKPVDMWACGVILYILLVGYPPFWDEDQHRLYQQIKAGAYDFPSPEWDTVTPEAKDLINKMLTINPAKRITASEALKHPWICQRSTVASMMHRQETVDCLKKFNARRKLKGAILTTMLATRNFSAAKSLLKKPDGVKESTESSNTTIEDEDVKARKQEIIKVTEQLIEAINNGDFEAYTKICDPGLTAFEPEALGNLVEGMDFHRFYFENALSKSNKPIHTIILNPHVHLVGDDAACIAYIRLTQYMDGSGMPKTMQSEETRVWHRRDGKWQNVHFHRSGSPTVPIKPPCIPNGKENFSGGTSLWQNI
smiles,measurement,setting,value
O=C(Nc1cc(-c2cn(CCNc3c4c(nc5ccccc35)CCCC4)nn2)ccn1)Nc1cccc2c1C1CCCCN1C2=O (racemic),IC50,[1],5 µM
same,Activity,[2],1.8%
same,Activity,[3],0.85%
same,Activity,[4],2.3%
same,Activity,[5],80%
same,Activity,[6],100%
same,Activity,[7],23%
same,Activity,[8],64%
same,Activity,[9],2.8%
same,Activity,[10],0.15%
same,Activity,[11],76%
same,Activity,[12],100%
same,Activity,[13],100%
same,Activity,[14],1.6%
same,Activity,[15],3.4%
same,Activity,[16],74%
same,Activity,[17],7%
same,Activity,[18],36%
same,Activity,[19],100%
same,Activity,[20],91%
same,Activity,[21],100%
same,Activity,[22],24%
same,Activity,[23],26%
same,Activity,[24],47%
same,Activity,[25],100%
